The results in this text go back to patent publication EP0306300B1, “Pyrrolo(1,2-a)imidazole and imidazo(1,2-a)pyridine derivatives and their use as 5-lipoxygenase pathway inhibitors” (SMITHKLINE BEECHAM CORPORATION, priority 1987, dated 1989).

In data set [1] the test system is arachidonic acid-induced edema in mice. The data set is described as follows: Arachidonic acid-induced mouse ear inflammation (ear swelling). It is filed as in vivo, male Balb/c mice. To be noted: for inhibition at 50 mg/kg: Mus musculus, po, 1 h, 50 mg/kg p.o., ear thickness one hour after 2 mg arachidonic acid; for antiinflammatory activity: p.o. As to the method: In the tests used to determine activity as 5-lipoxygenase pathway inhibitors, male Balb/c mice (20-28 g), were used. All mice were obtained from Charles River Breeding Laboratories, Kingston, N.Y. Within a single experiment, mice were age matched.
Reagents were employed as follows: Compounds of Formula (I) were each used as the free base. The compounds were homogenized in 0.5% tragacanth. Compounds were administered by […] at the indicated dose in a final volume of 10 ml/kg.
Arachidonic acid in acetone (2 mg/20 »l) was applied to the inner surface of the left ear. The thickness of both ears was then measured with a dial micrometer one hour after treatment, and the data were expressed as the change in thickness (10⁻³ cm) between treated and untreated ears.
Test compounds were given orally in acid/saline at the times indicated in the text prior to the topical application of arachidonic acid.
Dermatol., 82, 367-371 (1984)].

Data set [2] shares this test system. The data set is described as above. Type of data set: in vivo, male Balb/c mice. To be noted: 1 h, 50 mg/kg s.c. or i.p., ear thickness one hour after 2 mg arachidonic acid.
The target of the next data set is T1, 5-Lipoxygenase (Rattus norvegicus, UniProt P12527).
T1 construct: the supernatant was centrifuged at 100,000 x g for 60 min; host or cells: RBL-1 cells (soluble cell extract, high-speed supernatant)
T1 sequence (P12527 1-673): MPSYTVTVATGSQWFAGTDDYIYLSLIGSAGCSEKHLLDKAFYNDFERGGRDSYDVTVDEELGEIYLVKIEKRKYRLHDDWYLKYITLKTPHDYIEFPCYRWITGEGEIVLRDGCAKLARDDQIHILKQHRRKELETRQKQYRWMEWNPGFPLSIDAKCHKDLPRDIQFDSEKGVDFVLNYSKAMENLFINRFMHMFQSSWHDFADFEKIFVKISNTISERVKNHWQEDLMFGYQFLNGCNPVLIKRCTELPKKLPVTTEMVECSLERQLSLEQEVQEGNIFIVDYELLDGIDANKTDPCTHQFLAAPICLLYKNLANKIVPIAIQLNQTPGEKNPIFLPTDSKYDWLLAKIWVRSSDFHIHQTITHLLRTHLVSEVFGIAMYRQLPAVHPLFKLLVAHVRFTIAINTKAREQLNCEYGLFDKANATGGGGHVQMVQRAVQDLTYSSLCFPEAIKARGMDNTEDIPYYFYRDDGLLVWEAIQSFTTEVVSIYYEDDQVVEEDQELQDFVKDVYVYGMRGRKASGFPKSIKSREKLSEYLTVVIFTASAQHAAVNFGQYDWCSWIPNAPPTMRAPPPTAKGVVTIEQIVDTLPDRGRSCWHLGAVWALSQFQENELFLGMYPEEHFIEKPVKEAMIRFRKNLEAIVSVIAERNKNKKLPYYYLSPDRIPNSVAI
The data set is described as follows: Assay of 5-lipoxygenase activity in RBL-1 high speed supernatant. Type of data set: biochemical. To be noted: read-out: 5-LO IC50. As for the experimental part: For in vitro experiments, compounds were dissolved at appropriate concentrations in ethanol (final concentration 1.0%) and then diluted to final concentrations using the buffers indicated in the text.
The activities of these enzymes in extracts of RBL-1 cells were assayed using the method of Jakschik and Lee, Nature, 287, 51-52 (1980). RBL-1 cells were obtained from the American Type Culture Collection (#CRL 1378) and were grown at 37°C (5% CO₂ in air) in spinner culture in MEM supplemented with 10% heat inactivated fetal calf serum. Harvested cells were washed with 50 mM sodium phosphate buffer, pH 7.0, containing 1 mM EDTA and 0.1% gelatin, resuspended in fresh buffer (5 x 10⁷ cells/ml) and disrupted by nitrogen cavitation using the Parr bomb at 750 psi for 10 min. The broken cell extract was then centrifuged at 10,000 x g for 20 minutes (min) and the supernatant was centrifuged at 100,000 x g for 60 min. Aliquots (0.25 mls) of the supernatant were preincubated with or without drugs for 10 min, after which 10 ul CaCl₂ (2 mM) was added and the reaction was initiated with 2.5 »l of 2.5 mM arachidonic acid-1-¹⁴C (final concentration was 25 »M; specific activity 20,000 dpm/nmole). After incubation for 5 minutes at 37°C, the reaction was terminated by addition of 2 volumes (0.5 ml) ice cold acetone and the sample was allowed to deproteinize on ice for 10 minutes prior to centrifugation at 1,000 x g for 10 minutes. The deproteinized supernatant was adjusted to pH 3.5 with 2N formic acid and extracted with 2 volumes of ice cold ethyl acetate. The extracted samples were dried under argon, redissolved in ethyl acetate and applied to Whatman LK5D thin layer chromatography (TLC) plates which were developed using the A-9 solvent system [organic phase of ethyl acetate: […]:acetic acid: water (110:50:20:10)] described by Hamberg and Samuelsson, J. Biol. Chem., 241, 257-263 (1966). Arachidonic acid, 5-HETE, LTB₄ and PGD₂ were quantified with a Berthold LB 2832 autoscanner.
Under these conditions, only the 5-lipoxygenase pathway metabolites were detectable. The 5-HETE and di-HETEs were formed at a linear rate, and […] amounts of the arachidonic acid-1-¹⁴C substrate were utilized.

The nature of data set [3]: Cytochrome P-450 inhibition (ethoxycoumarin-O-deethylase activity, phenobarbital-induced microsomes). To be noted: rat.
Setting [4] is: total HETE and Di-HETE production by RBL-1 high speed supernatant.
The mark [5] stands for this setting: LTB4 production by RBL-1 high speed supernatant.

“Also recorded” adds a separate entry of the source. Like-named read-outs stand apart in the source and are kept apart here.

`CSc1ccc(-c2nc3n(c2-c2ccnc(C)c2)CCC3)cc1` [Compound 20, 2-(4-Methylthiophenyl)-3-[4-(2-methyl)pyridyl]-6,7-dihydro-[5H]-pyrrolo[1,2,a]imidazole]: the inhibition at 50 mg/kg in data set [1] and in data set [2] was 59% throughout.

In the case of `CC(=O)OCSc1ccc(-c2nc3n(c2-c2ccncc2)CCC3)cc1` [Compound 13, 2-(4-Acetoxymethylthiophenyl)-3-(4-pyridyl)-6,7-dihydro-[5H]-pyrrolo[1,2-a]imidazole], in data set [1], at 50 mg/kg the inhibition was 51%. For the same compound, on 5-Lipoxygenase (setting [4]), the IC50 (usually the concentration that gives 50% inhibition) was found to be 47 µM.

Turning to `COc1ccc2cc([C@H](C)C(=O)O)ccc2c1` [naproxen, reference compound], the antiinflammatory activity entry in data set [1] (100 mg/kg) is given as “do not exhibit detectable antiinflammatory activity”.

Regarding `COc1ccc(-c2nc3n(c2-c2ccnc(C)c2)CCC3)cc1` [Compound 22, 2-(4-methoxyphenyl)-3-[4-(2-methyl)pyridyl]-6,7-dihydro-[5H]-pyrrolo[1,2-a]imidazole], the inhibition (as a rule, how much of the control response was suppressed) at 50 mg/kg came to 56% in data set [1] and 57% in data set [2].

In data set [3] (liver microsomes), `COc1ccc(-c2nc3n(c2-c2ccnc(C)c2)CCC3)cc1` [Compound 23] displayed an IC50 of 56.6 µM.

Compound `CCOc1ccc(-c2nc3n(c2-c2ccncc2)CCC3)cc1` [Compound 8] came in with an inhibition at 50 mg/kg in data set [1] of 62%. On 5-Lipoxygenase (setting [5]), the IC50 amounted to 6 µM.

Regarding `CC(C)(C)C(=O)Sc1ccc(-c2nc3n(c2-c2ccncc2)CCC3)cc1` [Compound 12, 2-(4-Trimethylacetylthiophenyl)-3-(4-pyridyl)-6,7-dihydro-[5H]-pyrrolo[1,2-a]imidazole], at 50 mg/kg the inhibition in data set [1] was 45%. Moreover, the IC50 on 5-Lipoxygenase (setting [4]) was 6 µM.

As to `COc1ccc(-c2nc3n(c2-c2ccccn2)CCC3)cc1` [Compound 4], the inhibition at 50 mg/kg in data set [2] turned out to be 29%. Moreover, on 5-Lipoxygenase (setting [5]), the IC50 is above 100 µM.

Turning to `CCCOc1ccc(-c2nc3n(c2-c2ccncc2)CCC3)cc1` [Compound 9], 50 mg/kg produced 42% inhibition in data set [1]. Also, the IC50 was found to be 3.5 µM at 5-Lipoxygenase (setting [5]) and 8 µM on 5-Lipoxygenase (setting [4]).

`Cc1cc(-c2c(-c3ccc([S+](C)[O-])cc3)nc3n2CCC3)ccn1` (stereo not shown) [Compound 21, 2-(4-Methylsulfinylphenyl)-3-[4-(2-methyl)pyridyl]-6,7-dihydro-[5H]-pyrrolo[1,2-]imidazole]: the inhibition at 50 mg/kg in data set [1] amounted to 59%; in data set [2], 14%.

Take `CCOC(=O)CSc1ccc(-c2nc3n(c2-c2ccncc2)CCC3)cc1` [Compound 16, 2-(4-Carbethoxymethylthiophenyl)-3-(4-pyridyl)-6,7-dihydro-[5H]-pyrrolo[1,2-a]imidazole]: the inhibition at 50 mg/kg in data set [2] stood at 15%. For the same compound, the IC50 at 5-Lipoxygenase (setting [4]) worked out at 50 µM.

In data set [1], `CCSc1ccc(-c2nc3n(c2-c2ccncc2)CCC3)cc1` [Compound 14, 2-(4-Ethylthiophenyl)-3-(4-pyridyl)-6,7-dihydro-[5H]-pyrrolo[1,2-a]imidazole] displayed an inhibition at 50 mg/kg of 56%. The IC50 is 28.1 µM in data set [3] (liver microsomes) and 30 µM on 5-Lipoxygenase (setting [4]).

Turning to `CS(=O)(=O)c1ccc(-c2nc3n(c2-c2ccncc2)CCC3)cc1` [Compound 3, 2-(4-Methylsulfonylphenyl)-3-(4-pyridyl)-6.7-dihydro-[5H]-pyrrolo[1,2-a]imidazole], the IC50 (in data set [3] (microsomes); on 5-Lipoxygenase (setting [5])) was above 100 µM in each case. The compound also gave an inhibition at 50 mg/kg in data set [2] of 3%.

As to `C[S+]([O-])c1ccc(-c2c(-c3ccncc3)nc3n2CCC3)cc1` (stereo not shown) [Compound 19], the inhibition at 50 mg/kg in data set [1] came to 52%; in data set [2] it was 56%.

In data set [1], `CC(=O)Sc1ccc(-c2nc3n(c2-c2ccncc2)CCC3)cc1` [Compound 11, 2-(4-Acetylthiophenyl)-3-(4-pyridyl)-6,7-dihydro-[5H]-pyrrolo[1,2-a]imidazole] had an inhibition at 50 mg/kg of 46%. The IC50 on 5-Lipoxygenase (setting [4]) came to 25 µM.

For the compound `Oc1ccc(-c2nc3n(c2-c2ccncc2)CCC3)cc1` [Compound 7], in data set [1], the inhibition at 50 mg/kg is 27%. Further, the 50% inhibitory concentration (IC50) on 5-Lipoxygenase (setting [5]) is 17 µM.

In the case of `CC(C)Cc1ccc(C(C)C(=O)O)cc1` (stereo not shown) [ibuprofen, reference compound], the antiinflammatory activity result in data set [1] (250 mg/kg) is given as “do not exhibit detectable antiinflammatory activity”.

In turn, `CC(C)Oc1ccc(-c2nc3n(c2-c2ccncc2)CCC3)cc1` [Compound 10] yielded an inhibition at 50 mg/kg in data set [1] of 43%. This compound gave a half-maximal inhibitory concentration (IC50) in data set [3] (microsomes) of 2.5 µM.

As for `CSc1ccc(-c2c(-c3ccncc3)nc3n2CCC3)cc1` [Compound 18], the figures for the inhibition at 50 mg/kg in data set [1] and in data set [2] were 28% and 32%, respectively.

As for `COc1ccc2c(c1)c(CC(=O)O)c(C)n2C(=O)c1ccc(Cl)cc1` [indomethacin, reference compound], the antiinflammatory activity entry in data set [1] (10 mg/kg) is given as “did not reduce inflammation; also recorded: do not exhibit detectable antiinflammatory activity”.

`COc1ccc(-c2nc3n(c2-c2cccnc2)CCC3)cc1` [Compound 5]: the IC50 in data set [3] (microsomes) was above 100 µM. Besides, in data set [2], the inhibition at 50 mg/kg worked out at 34%.

In the case of `CC[S+]([O-])c1ccc(-c2nc3n(c2-c2ccncc2)CCC3)cc1` (stereo not shown) [Compound 15, 2-(4-Ethylsulfinylphenyl)-3-(4-pyridyl)-6,7-dihydro-[5H]-pyrrolo[1,2-a]imidazole], in data set [1], testing at 50 mg/kg gave an inhibition of 41%. Moreover, the IC50 (in data set [3] (liver microsomes); on 5-Lipoxygenase (setting [4])) was above 100 µM in each case.

`c1cc(-c2cn3c(n2)CCC3)ccn1` [Compound 17]: the inhibition at 50 mg/kg in data set [1] stood at 20%; in data set [2] it was 41%.
